Source: ChEMBL document CHEMBL3885881, “DrugMatrix”

Organism: Rattus norvegicus
Assay: DrugMatrix - Regimen: Daily Repeat
Format: toxicity, organism-based, Sprague-Dawley
Parameters: regimen Daily Repeat, gender Male, age 6-8 weeks
Settings: in vivo, po, 0 mg/kg, route oral GAVAGE, dose level Control, vehicle 100 % WATER; for ABSOLUTE BASOPHIL / ABSOLUTE EOSINOPHIL / ABSOLUTE LYMPHOCYTE / ABSOLUTE MONOCYTE / ABSOLUTE SEGMENTED NEUTROPHIL / BASOPHIL / EOSINOPHIL / ERYTHROCYTE COUNT / HEMATOCRIT / HEMOGLOBIN / LEUKOCYTE COUNT / LYMPHOCYTE / MEAN CORPUSCULAR HEMOGLOBIN / MEAN CORPUSCULAR VOLUME / MONOCYTE / NEUTROPHIL / NUCLEATED RED BLOOD CELLS / PLATELET COUNT: tissue Blood; for ALANINE AMINOTRANSFERASE / ALBUMIN / ALKALINE PHOSPHATASE / ASPARTATE AMINOTRANSFERASE / BLOOD UREA NITROGEN / CARBON DIOXIDE / CHLORIDE / CHOLESTEROL / CREATINE PHOSPHOKINASE / CREATININE / GLUCOSE / LACTATE DEHYDROGENASE / LIPASE / PHOSPHORUS / POTASSIUM / SODIUM / TOTAL BILIRUBIN / TOTAL PROTEIN / URIC ACID: tissue Plasma

CCCCCCCCCCCCCCCC[n+]1ccccc1.[Br-]
ABSOLUTE BASOPHIL (72 h, time 3 day): 0 CELLS/uL
ABSOLUTE EOSINOPHIL (72 h, time 3 day): 58.83 CELLS/uL
ABSOLUTE LYMPHOCYTE (72 h, time 3 day): 11823.5 CELLS/uL
ABSOLUTE MONOCYTE (72 h, time 3 day): 169 CELLS/uL
ABSOLUTE SEGMENTED NEUTROPHIL (72 h, time 3 day): 815.33 CELLS/uL
BASOPHIL (72 h, time 3 day): 0%
EOSINOPHIL (72 h, time 3 day): 0.5%
ERYTHROCYTE COUNT (72 h, time 3 day): 5.52 x10E6/uL
HEMATOCRIT (72 h, time 3 day): 35.77%
HEMOGLOBIN (72 h, time 3 day): 14.28 G/DL
LEUKOCYTE COUNT (72 h, time 3 day): 12.87 x10E3/uL
LYMPHOCYTE (72 h, time 3 day): 91.67%
MEAN CORPUSCULAR HEMOGLOBIN (72 h, time 3 day): 25.92 pg
MEAN CORPUSCULAR VOLUME (72 h, time 3 day): 64.85 fL
MONOCYTE (72 h, time 3 day): 1.33%
NEUTROPHIL (72 h, time 3 day): 6.5%
NUCLEATED RED BLOOD CELLS (72 h, time 3 day): 0 /100WBC
PLATELET COUNT (72 h, time 3 day): 1246.17 x10E3/uL
ALANINE AMINOTRANSFERASE (72 h, time 3 day): 66 u/L
ALBUMIN (72 h, time 3 day): 4.25 G/DL
ALKALINE PHOSPHATASE (72 h, time 3 day): 416 u/L
ASPARTATE AMINOTRANSFERASE (72 h, time 3 day): 106.17 u/L
BLOOD UREA NITROGEN (72 h, time 3 day): 12.67 mg/dL
CARBON DIOXIDE (72 h, time 3 day): 31.83 mmol/L
CHLORIDE (72 h, time 3 day): 102.5 MEQ/L
CHOLESTEROL (72 h, time 3 day): 69 mg/dL
CREATINE PHOSPHOKINASE (72 h, time 3 day): 601.83 u/L
CREATININE (72 h, time 3 day): 0.18 mg/dL
GLUCOSE (72 h, time 3 day): 154.5 mg/dL
LACTATE DEHYDROGENASE (72 h, time 3 day): 301.83 u/L
LIPASE (72 h, time 3 day): 11.17 u/L
PHOSPHORUS (72 h, time 3 day): 12.08 mg/dL
POTASSIUM (72 h, time 3 day): 6.12 MEQ/L
SODIUM (72 h, time 3 day): 145.2 MEQ/L
TOTAL BILIRUBIN (72 h, time 3 day): 0.17 mg/dL
TOTAL PROTEIN (72 h, time 3 day): 6.1 G/DL
URIC ACID (72 h, time 3 day): 1.57 mg/dL
ABSOLUTE BASOPHIL (120 h, time 5 day): 0 CELLS/uL
ABSOLUTE EOSINOPHIL (120 h, time 5 day): 19.33 CELLS/uL
ABSOLUTE LYMPHOCYTE (120 h, time 5 day): 12577.83 CELLS/uL
ABSOLUTE MONOCYTE (120 h, time 5 day): 106.33 CELLS/uL
ABSOLUTE SEGMENTED NEUTROPHIL (120 h, time 5 day): 896.5 CELLS/uL
BASOPHIL (120 h, time 5 day): 0%
EOSINOPHIL (120 h, time 5 day): 0.17%
ERYTHROCYTE COUNT (120 h, time 5 day): 5.84 x10E6/uL
HEMATOCRIT (120 h, time 5 day): 36.88%
HEMOGLOBIN (120 h, time 5 day): 14.48 G/DL
LEUKOCYTE COUNT (120 h, time 5 day): 13.6 x10E3/uL
LYMPHOCYTE (120 h, time 5 day): 92.17%
MEAN CORPUSCULAR HEMOGLOBIN (120 h, time 5 day): 24.85 pg
MEAN CORPUSCULAR VOLUME (120 h, time 5 day): 63.23 fL
MONOCYTE (120 h, time 5 day): 0.83%
NEUTROPHIL (120 h, time 5 day): 6.83%
NUCLEATED RED BLOOD CELLS (120 h, time 5 day): 0 /100WBC
PLATELET COUNT (120 h, time 5 day): 1223.5 x10E3/uL
ALANINE AMINOTRANSFERASE (120 h, time 5 day): 55.33 u/L
ALBUMIN (120 h, time 5 day): 4.08 G/DL
ALKALINE PHOSPHATASE (120 h, time 5 day): 355.5 u/L
ASPARTATE AMINOTRANSFERASE (120 h, time 5 day): 87.67 u/L
BLOOD UREA NITROGEN (120 h, time 5 day): 15.33 mg/dL
CARBON DIOXIDE (120 h, time 5 day): 33.83 mmol/L
CHLORIDE (120 h, time 5 day): 99.67 MEQ/L
CHOLESTEROL (120 h, time 5 day): 72.17 mg/dL
CREATINE PHOSPHOKINASE (120 h, time 5 day): 268.33 u/L
CREATININE (120 h, time 5 day): 0.15 mg/dL
GLUCOSE (120 h, time 5 day): 152.5 mg/dL
LACTATE DEHYDROGENASE (120 h, time 5 day): 212.67 u/L
LIPASE (120 h, time 5 day): 10.83 u/L
PHOSPHORUS (120 h, time 5 day): 11.65 mg/dL
POTASSIUM (120 h, time 5 day): 6.73 MEQ/L
SODIUM (120 h, time 5 day): 142.43 MEQ/L
TOTAL BILIRUBIN (120 h, time 5 day): 0.23 mg/dL
TOTAL PROTEIN (120 h, time 5 day): 6.07 G/DL
URIC ACID (120 h, time 5 day): 1.7 mg/dL
